Experimental data from the supplement of paper PMC10307832.

How the values were obtained:
Assay in all cases: relative viability (nuclei count vs DMSO), 5 days (fraction); higher = more cells survive
[1] = compound: CC1=CC(=CC=C1)NC2=NC(=CS2)C3=CC=NC=C3 + COc1cccc2cc(-c3nc([C@H]4CC[C@H](C(=O)O)CC4)n4ncnc(N)c34)[nH]c12 [OSI-027] (partner 0.5 µM)
Procedure, shortened: (§1)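 One day after seeding in 1536-well plates, lung cancer cell lines were dosed by pin tool. Dosing was either single-drug or a fixed anchor-drug dose plus five library-drug doses (not always all listed) in √10 steps. After 5 days, nuclei were stained in one fix-and-stain step and counted on 4× images, and relative viability is the nuclei count of treated wells over that of vehicle wells, given as the median of duplicate plates.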

[2] = compound: Cc1ccc(NC(=O)c2ccc(CN3CCN(C)CC3)cc2)cc1Nc1nc(-c2cccnc2)cs1 [Masitinib] + CS(=O)(=O)CCNCc1ccc(-c2ccc3ncnc(Nc4ccc(OCc5cccc(F)c5)c(Cl)c4)c3c2)o1 [Lapatinib] (partner 2 µM)
Procedure, shortened: as §1

[3] = compound: Cc1ccc(NC(=O)c2ccc(CN3CCN(C)CC3)cc2)cc1Nc1nc(-c2cccnc2)cs1 [Masitinib] + Cc1nc(Nc2ncc(C(=O)Nc3c(C)cccc3Cl)s2)cc(N2CCN(CCO)CC2)n1 [Dasatinib] (partner 0.075 µM)
Procedure, shortened: as §1

[4] = compound: CC1=CC(=CC=C1)NC2=NC(=CS2)C3=CC=NC=C3 + CS(=O)(=O)N1CCN(Cc2cc3nc(-c4cccc5[nH]ncc45)nc(N4CCOCC4)c3s2)CC1 [Pictilisib] (partner 1 µM)
Procedure, shortened: as §1

Row | Cell Line | relative viability ([1]; first compound 0.08 µM) | relative viability ([1]; first compound 0.253 µM) | relative viability ([1]; first compound 0.8 µM) | relative viability ([1]; first compound 2.53 µM) | relative viability ([1]; first compound 8 µM) | relative viability ([2]; first compound 0.01 µM) | relative viability ([2]; first compound 0.03162 µM) | relative viability ([2]; first compound 0.1 µM) | relative viability ([2]; first compound 0.3162 µM) | relative viability ([2]; first compound 1 µM) | relative viability ([3]; first compound 0.01 µM) | relative viability ([3]; first compound 0.03162 µM) | relative viability ([3]; first compound 0.1 µM) | relative viability ([3]; first compound 0.3162 µM) | relative viability ([3]; first compound 1 µM) | relative viability ([4]; first compound 0.08 µM) | relative viability ([4]; first compound 0.253 µM) | relative viability ([4]; first compound 0.8 µM) | relative viability ([4]; first compound 2.53 µM) | relative viability ([4]; first compound 8 µM)
1 | NCI-H2009 | 0.589 | 0.668 | 0.676 | 0.625 | 0.586 | 0.567 | 0.984 | 0.719 | 0.834 | 0.9 | 0.291 | 0.284 | 0.324 | 0.283 | 0.244 | 0.724 | 0.837 | 0.692 | 0.856 | 0.957
2 | NCI-H441 | 0.492 | 0.499 | 0.605 | 0.61 | 0.672 | – | – | – | – | – | 0.846 | 0.623 | 0.723 | 0.659 | 0.511 | 0.44 | 0.529 | 0.476 | 0.489 | 0.543
3 | PC-14 | 0.712 | 0.833 | 0.795 | 0.826 | 0.702 | 0.286 | 0.314 | 0.315 | 0.185 | 0.309 | 0.266 | 0.241 | 0.28 | 0.181 | 0.217 | 0.719 | 0.666 | 0.634 | 0.752 | 0.598
4 | NCI-H2342 | 0.623 | 0.588 | 0.65 | 0.5 | 0.607 | – | – | – | – | – | 0.326 | 0.334 | 0.3 | 0.301 | 0.34 | – | – | – | – | –
5 | ChaGo-K-1 | 0.43 | 0.459 | 0.588 | 0.394 | 0.485 | – | – | – | – | – | 0.577 | 0.575 | 0.54 | 0.546 | 0.629 | 0.697 | 0.447 | 0.691 | 0.36 | 0.639
6 | HCC-44 | 0.321 | 0.374 | 0.558 | 0.432 | 0.348 | 0.911 | 0.98 | 1.05 | 0.856 | 0.951 | – | – | – | – | – | 0.423 | 0.429 | 0.462 | 0.485 | 0.486
7 | A549 | – | – | – | – | – | 0.995 | 0.948 | 1.05 | 0.942 | 0.963 | – | – | – | – | – | 0.399 | 0.472 | 0.524 | 0.525 | 0.418
8 | NCI-H1299 | – | – | – | – | – | 0.922 | 0.961 | 0.991 | 0.976 | 0.945 | – | – | – | – | – | 0.779 | 0.839 | 0.779 | 0.88 | 0.899
9 | SW 900 | 0.443 | 0.539 | 0.549 | 0.356 | 0.355 | – | – | – | – | – | 0.613 | 0.473 | 0.706 | 0.499 | 0.477 | – | – | – | – | –
10 | IA-LM | – | – | – | – | – | – | – | 0.891 | 0.928 | 1.07 | – | – | – | – | – | 0.24 | 0.337 | 0.415 | 0.267 | 0.427
11 | LCLC-103H | 0.389 | 0.448 | 0.422 | 0.462 | 0.342 | – | – | – | – | – | 0.41 | 0.467 | 0.462 | 0.437 | 0.445 | 0.402 | 0.54 | 0.551 | 0.572 | 0.546
12 | NCI-H1648 | 0.259 | 0.277 | 0.276 | 0.258 | 0.255 | – | – | – | – | – | – | – | – | – | – | – | – | – | – | –
